In ChEMBL document CHEMBL3745682, “Pivotal role of glycogen synthase kinase-3: A therapeutic target for Alzheimer's disease” (Eur J Med Chem, 2016):

Key:
[1] = target: T1, Glycogen synthase kinase-3 beta (Homo sapiens, UniProt P49841); test: Inhibition of glycogen synthase kinase-3 beta (unknown origin) using GS-1 as substrate after 20 mins by scintillation counting analysis in presence of [gamma-32P]-ATP
[2] = target: T2, Glycogen synthase kinase-3 (Homo sapiens, UniProt P49840+P49841); type: protein assay
Description: Inhibition of glycogen synthase kinase-3 (unknown origin)

[3] = target: T1, Glycogen synthase kinase-3 beta
Description: Competitive inhibition of glycogen synthase kinase-3 beta (unknown origin) using GS-1 as substrate after 30 mins by scintillation counting analysis in presence of [gamma-32P]-ATP

[4] = target: T2, Glycogen synthase kinase-3; test: Competitive inhibition of glycogen synthase kinase-3 (unknown origin) in presence of ATP; type: protein assay

T1 sequence (P49841 whole entry): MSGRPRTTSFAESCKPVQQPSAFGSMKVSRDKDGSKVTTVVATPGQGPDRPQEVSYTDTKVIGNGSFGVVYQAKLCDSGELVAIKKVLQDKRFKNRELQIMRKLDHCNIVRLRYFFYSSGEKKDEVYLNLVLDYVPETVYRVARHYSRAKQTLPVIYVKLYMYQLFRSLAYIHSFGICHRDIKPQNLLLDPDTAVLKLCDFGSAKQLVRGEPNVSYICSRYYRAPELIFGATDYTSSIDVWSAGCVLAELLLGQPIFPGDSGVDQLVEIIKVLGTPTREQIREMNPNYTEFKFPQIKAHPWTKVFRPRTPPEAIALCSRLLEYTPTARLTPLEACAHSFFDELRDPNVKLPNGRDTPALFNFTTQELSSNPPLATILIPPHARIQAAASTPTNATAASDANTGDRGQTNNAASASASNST

O=C(CBr)c1ccc(C2C(=O)c3ccccc3C2=O)cc1
IC50 [1]: 100000 nM

CC(=O)C1=C(c2cn(C)c3ccccc23)C(=O)NC1=O
IC50 [2]: 4470 nM

O=C1Nc2ccccc2/C1=C1/Nc2ccccc2C1=O [INDIRUBIN]
IC50 [3]: 4 nM

Br.Br.c1ccc(C/N=C2\NC(c3ccccc3)N(c3ccccc3)S2)cc1 (centres undefined)
IC50 [2]: 1280 nM

O=S=C(CCl)c1ccc(Cl)cc1
IC50 [1]: > 100000 nM

Clc1cccc(C2=NC(c3ccccc3)=NN(c3ccccc3)c3ccccc32)c1
IC50 [2]: 3380 nM

Br.CCOC(=O)C/N=C1\NC(c2ccccc2)N(c2ccccc2)S1 (centres undefined)
IC50 [2]: 7050 nM

COc1ccc(CNC(=O)Nc2nc(C)c(C(C)=O)s2)cc1
IC50 [4]: 400 nM

O=C1Nc2ccccc2/C1=C1/Nc2cc(Br)ccc2C1=O
IC50 [3]: 4 nM
